Test results published in paper PMC6220303 (EMBO Molecular Medicine, 2018).
Where two headings read alike, the source gives them in different places.

Test: clinical
Type: in vivo, human
Conditions: for Mean concentration: AUC divided by 24 hours; for concentration at 3 months: read-out: steady-state plasma level
Experimental: The lower limit of quantification (LLOQ) was 1 ng/ml in plasma and 2 ng/ml in urine and CSF, except for the 3‐month study where the method for CSF was more sensitive (LLOQ 0.1 ng/ml). Plasma PK parameters were calculated using actual recorded sampling times and non‐compartmental methods with Phoenix WinNonlin version 6.4 (Certara, Inc., Princeton, NJ, USA).
For further details, see the Appendix Table S10 in Appendix and the accompanying clinical protocols synopsis (Appendix Table S11).

[1] = single dose 1250 mg, adults (2), individual data points

## C[C@@]1(c2nc(NC(=O)c3ncc(C(F)(F)F)cc3Cl)ccc2F)CO[C@@](C)(C(F)(F)F)C(N)=N1 [CNP520]
2 mg, 3 months, Day 91
  Mean concentration: 25.6 nM
10 mg, 3 months, Day 91
  Mean concentration: 123 nM
10 mg, 14 days, Day 14
  Mean concentration: 114 nM
30 mg, 14 days, Day 14
  Mean concentration: 292 nM
35 mg, 3 months, Day 91
  Mean concentration: 371 nM
85 mg, 3 months, Day 91
  Mean concentration: 910 nM
90 mg, 14 days, Day 14
  Mean concentration: 762 nM
300 mg, 14 days, Day 14
  Mean concentration: 2312 nM
Both sexes, human, plasma, oral, 30 mg, 14 days, Day 14, median (min–max)
  Tmax: 3 h
Both sexes, human, plasma, oral, 30 mg, 14 days, Day 14, ≥ 60 years, mean (CV%)
  Cmax: 211 ng/mL
Both sexes, human, plasma, oral, 30 mg, AUC 0–24h, 30 mg, 14 days, Day 14, mean (CV%)
  AUC(0-t): 3580 ng·h/mL
Both sexes, human, plasma, oral, participants ≥ 60 years of age, single dose, read-out: mean terminal T 1/2
  half-life: 81.4 to 109 h
Both sexes, human, plasma, oral, 2-mg dose daily, participants ≥ 60 years
  concentration at 3 months: 11.9 ng/mL
Both sexes, human, plasma, oral, 2-mg dose daily
  concentration at 3 months: 23 nM
Both sexes, human, plasma, oral, 85-mg dose daily, participants ≥ 60 years
  concentration at 3 months: 425 ng/mL
Both sexes, human, plasma, oral, 85-mg dose daily
  concentration at 3 months: 828 nM
Human plasma, 85 mg, 3-month study
  free C max: 48 nM
human, plasma, oral, 2 mg, 3 months, Day 91, median (min–max)
  Tmax: 2.5 h
human, plasma, oral, 2 mg, 3 months, Day 91, ≥ 60 years, mean (CV%)
  Cmax: 16.6 ng/mL
human, plasma, oral, 2 mg, AUC 0–24h, 2 mg, 3 months, Day 91, mean (CV%)
  AUC(0-t): 313 ng·h/mL
human, plasma, oral, 10 mg, 3 months, Day 91, median (min–max)
  Tmax: 2.5 h
human, plasma, oral, 10 mg, 3 months, Day 91, ≥ 60 years, mean (CV%)
  Cmax: 81 ng/mL
human, plasma, oral, 10 mg, 14 days, Day 14, median (min–max)
  Tmax: 2.53 h
human, plasma, oral, 10 mg, 14 days, Day 14, ≥ 60 years, mean (CV%)
  Cmax: 84.3 ng/mL
human, plasma, oral, 10 mg, AUC 0–24h, 10 mg, 3 months, Day 91, mean (CV%)
  AUC(0-t): 1500 ng·h/mL
human, plasma, oral, 10 mg, AUC 0–24h, 10 mg, 14 days, Day 14, mean (CV%)
  AUC(0-t): 1400 ng·h/mL
human, plasma, oral, 10 mg, single dose 10 mg, adults (6), mean (%CV), read-out: Cmax
  Cmax: 20.9 ng/mL
human, plasma, oral, 10 mg, single dose 10 mg, adults (6), median (min–max), read-out: Tmax
  Tmax: 4 h
human, plasma, oral, 10 mg, single dose 10 mg, adults (n = 5), mean (%CV)
  AUC(0-inf): 948 ng·h/mL
human, plasma, oral, 10 mg, single dose 10 mg, adults (n = 5), mean (%CV), read-out: T1/2 (converted)
  half-life: 61.3 h
human, plasma, oral, 10 mg, single dose 10 mg, adults ≥ 60 years (6), mean (%CV), read-out: Cmax
  Cmax: 16 ng/mL
human, plasma, oral, 10 mg, single dose 10 mg, adults ≥ 60 years (6), median (min–max), read-out: Tmax
  Tmax: 4.02 h
human, plasma, oral, 30 mg, single dose 30 mg, adults (12), mean (%CV)
  AUC(0-inf): 3070 ng·h/mL
human, plasma, oral, 30 mg, single dose 30 mg, adults (12), mean (%CV), read-out: Cmax
  Cmax: 65.7 ng/mL
human, plasma, oral, 30 mg, single dose 30 mg, adults (12), mean (%CV), read-out: T1/2 (converted)
  half-life: 64.3 h
human, plasma, oral, 30 mg, single dose 30 mg, adults (12), median (min–max), read-out: Tmax
  Tmax: 3.5 h
human, plasma, oral, 35 mg, 3 months, Day 91, median (min–max)
  Tmax: 2.5 h
human, plasma, oral, 35 mg, 3 months, Day 91, ≥ 60 years, mean (CV%)
  Cmax: 237 ng/mL
human, plasma, oral, 35 mg, AUC 0–24h, 35 mg, 3 months, Day 91, mean (CV%)
  AUC(0-t): 4450 ng·h/mL
human, plasma, oral, 75 mg, AUC 0–72h, food effect, 75 mg Fasted (10), adults, mean (%CV)
  AUC(0-t): 4450 ng·h/mL
human, plasma, oral, 75 mg, AUC 0–72h, food effect, 75 mg Fed (10), adults, mean (%CV)
  AUC(0-t): 4870 ng·h/mL
human, plasma, oral, 75 mg, food effect, 75 mg Fasted (10), adults, mean (%CV), read-out: Cmax
  Cmax: 164 ng/mL
human, plasma, oral, 75 mg, food effect, 75 mg Fasted (10), adults, median (min–max), read-out: Tmax
  Tmax: 3.5 h
human, plasma, oral, 75 mg, food effect, 75 mg Fed (10), adults, mean (%CV), read-out: Cmax
  Cmax: 179 ng/mL
human, plasma, oral, 75 mg, food effect, 75 mg Fed (10), adults, median (min–max), read-out: Tmax
  Tmax: 4.04 h
human, plasma, oral, 85 mg, 3 months, Day 91, median (min–max)
  Tmax: 2.5 h
human, plasma, oral, 85 mg, 3 months, Day 91, ≥ 60 years, mean (CV%)
  Cmax: 602 ng/mL
human, plasma, oral, 85 mg, AUC 0–24h, 85 mg, 3 months, Day 91, mean (CV%)
  AUC(0-t): 11200 ng·h/mL
human, plasma, oral, 90 mg, 14 days, Day 14, median (min–max)
  Tmax: 3 h
human, plasma, oral, 90 mg, 14 days, Day 14, ≥ 60 years, mean (CV%)
  Cmax: 581 ng/mL
human, plasma, oral, 90 mg, AUC 0–24h, 90 mg, 14 days, Day 14, mean (CV%)
  AUC(0-t): 9380 ng·h/mL
human, plasma, oral, 90 mg, single dose 90 mg, adults (6), mean (%CV)
  AUC(0-inf): 7190 ng·h/mL
human, plasma, oral, 90 mg, single dose 90 mg, adults (6), mean (%CV), read-out: Cmax
  Cmax: 138 ng/mL
human, plasma, oral, 90 mg, single dose 90 mg, adults (6), mean (%CV), read-out: T1/2 (converted)
  half-life: 66.2 h
human, plasma, oral, 90 mg, single dose 90 mg, adults (6), median (min–max), read-out: Tmax
  Tmax: 3.5 h
human, plasma, oral, 90 mg, single dose 90 mg, adults ≥ 60 years (6), mean (%CV), read-out: Cmax
  Cmax: 172 ng/mL
human, plasma, oral, 90 mg, single dose 90 mg, adults ≥ 60 years (6), median (min–max), read-out: Tmax
  Tmax: 2.02 h
human, plasma, oral, 300 mg, 14 days, Day 14, median (min–max)
  Tmax: 2.51 h
human, plasma, oral, 300 mg, 14 days, Day 14, ≥ 60 years, mean (CV% 25.1)
  Cmax: 1710 ng/mL
human, plasma, oral, 300 mg, AUC 0–24h, 300 mg, 14 days, Day 14, mean (CV%)
  AUC(0-t): 28300 ng·h/mL
human, plasma, oral, 300 mg, single dose 300 mg, adults (6), mean (%CV)
  AUC(0-inf): 23500 ng·h/mL
human, plasma, oral, 300 mg, single dose 300 mg, adults (6), mean (%CV), read-out: Cmax
  Cmax: 498 ng/mL
human, plasma, oral, 300 mg, single dose 300 mg, adults (6), mean (%CV), read-out: T1/2 (converted)
  half-life: 57.9 h
human, plasma, oral, 300 mg, single dose 300 mg, adults (6), median (min–max), read-out: Tmax
  Tmax: 6 h
human, plasma, oral, 300 mg, single dose 300 mg, adults ≥ 60 years (18), mean (%CV), read-out: Cmax
  Cmax: 440 ng/mL
human, plasma, oral, 300 mg, single dose 300 mg, adults ≥ 60 years (18), median (min–max), read-out: Tmax
  Tmax: 5.04 h
human, plasma, oral, 750 mg, single dose 750 mg, adults (6), mean (%CV)
  AUC(0-inf): 90100 ng·h/mL
human, plasma, oral, 750 mg, single dose 750 mg, adults (6), mean (%CV), read-out: Cmax
  Cmax: 1150 ng/mL
human, plasma, oral, 750 mg, single dose 750 mg, adults (6), mean (%CV), read-out: T1/2 (converted)
  half-life: 83.8 h
human, plasma, oral, 750 mg, single dose 750 mg, adults (6), median (min–max), read-out: Tmax
  Tmax: 2.5 h
human, plasma, oral, 750 mg, single dose 750 mg, adults ≥ 60 years (20), mean (%CV), read-out: Cmax
  Cmax: 1120 ng/mL
human, plasma, oral, 750 mg, single dose 750 mg, adults ≥ 60 years (20), median (min–max), read-out: Tmax
  Tmax: 3 h
human, plasma, oral, 1250 mg, single dose 1250 mg, adults (2), individual data points
  AUC(0-inf): 168000 ng·h/mL
human, plasma, oral, 1250 mg, single dose 1250 mg, adults (2), individual data points, read-out: Cmax
  Cmax: 2850 ng/mL
human, plasma, oral, 1250 mg, single dose 1250 mg, adults (2), individual data points, read-out: T1/2 (converted)
  half-life: 76.4 h
human, plasma, oral, 1250 mg, single dose 1250 mg, adults (2), individual data points, read-out: Tmax
  Tmax: 4 h
human, plasma, oral, after dose, human pharmacokinetic studies, read-out: T max
  Tmax: 1 to 8 h
human, plasma, oral, healthy adult participants, single dose, read-out: mean terminal T 1/2
  half-life: 61.3 to 83.8 h
[1]
  AUCinf: 184000 ng·h/mL
  Cmax: 2890 ng/mL
  T1/2: 86.1 h
  Tmax: 8.00 h
typically, at pharmacologically active doses in animals and humans
  unbound concentration of CNP520 in plasma: below 0.1 μM
